Assay [1] deals with L. major/egfp promastigotes. The assay can be described thus: Analysis of in vitro anti-leishmanial activity (growth inhibition, egfp fluorescence). The note with it: 25° C., 72 h, Amphotericin B positive control defined as 100%, FIG. 9. Type of assay: cell-based, Leishmania major. How it is done:
The compounds represented by formulas (1) to (6), which had been isolated by the procedure described above, were subjected to an analysis of the physiological activity under the conditions that are described below. Leishmania major promastigotes were selected as the Leishmania protozoa, and a L. major/egfp promastigotes in which a fluorescent protein egfp gene had been introduced was used. The compounds mentioned above were used as samples. Thus, the growth inhibition rate was determined under the following conditions.
L. major/egfp promastigotes were maintained at 25° C. using a 96-well plate, in 199 medium (NISSUI Pharmaceutical) containing 10% fetal bovine serum 25 mM and Hepes buffer (ICN Biomedeivals, Inc., Aurora, Ohio) and 10 μg/mL Tunicamycin (SIGMA-ALDRICH, inc., USA). Subsequently, to each well of 96-well plates containing 100 μL of L. major/egfp suspension with 1×10^6 cells/mL, 100 μL of test solution (sample dissolved in DMSO) was added, and the plates were incubated at 25° C. for 72 h. Thereafter, Fluorescence signals of L. major/egfp promastigotes were measured with a fluorescence microplate reader (Fluoroscan Ascent FL, Dainippon Pharmaceutical Co.) with excitation at 485 nm and emission at 538 nm. […]

The subject of assay [2] is L. major PM2. The assay can be described thus: Analysis of in vivo anti-leishmanial activity in leishmaniasis mouse model. The settings on record: Balb/c mice infected with L. major PM2; 200 μg by peritoneal injection once a day for three weeks; FIG. 10-12. How it is done:
In order to evaluate the in vivo anti-leishmanial activity of the compound represented by formula (3), which had been isolated by the procedure described above, a leishmaniasis mouse model was used to investigate the therapeutic effect. Six-week old mice (Balb/c, male, 6 animals per group) were infected with 1×10^7 cells of cultured promastigotes of L. major PM2. From the day after the infection day, the compound represented by the formula (3) was administered to each specimen in an amount of 200 [μg by peritoneal injection. The administration schedule was such that the compound was continuously administered once a day for three weeks. Further, as control, the same analysis was carried out also for a treatment group to which Amphotericin B was administered, and for a treatment group to which none was administered.

The values that follow come from patent publication US8373006B2, “Anti-leishmanial compound and anti-leishmanial drug” (Aoyama Gakuin Educational Foundation, priority 2010, dated 2013).

Structures are written as SMILES.

For `CC(C)=CCC/C(C)=C/CC/C(C)=C/CC/C(C)=C/CC1(CC(=O)O)CC(=O)C=CC1=O` (centres unmarked) [formula (3)], the growth inhibition rate entry in assay [1] is listed as “almost equal to the growth inhibition rate of Amphotericin B”. Also, in assay [2], the “in vivo anti-leishmanial activity (size of ulcer, antibody titer in blood, protozoan DNA in blood)” value is on record as “equal to that of Amphotericin B”.
